According to US20250368687A1, “SHORT SYNTHETIC PEPTIDES AND USES THEREOF IN THE TREATMENT OF ENTEROVIRUS INFECTION” (CITY UNIVERSITY OF HONG KONG, priority 2024, published 2025):

What was measured:
[1] = test system: RD cells; test: CCK-8 assay; format: cell-based; conditions: data not shown
Procedure: RD cells were seeded in 96-well cell plates (1×10^4/well) and placed in the 5% CO2 incubator for 1 day. Then the cells were treated with peptides for 2 days. 90 μl medium and 10 μl of CCK-8 (BioSharp, BS350B) was added to each well of the 96-well plate, which were incubated at 37° C. for 1 h. A microplate reader (BioTek, Synergy H1) was used to measure the OD value of each well at 450 nm.

[2] = test system: EV-A71 IRES activity; test: Dual-luciferase IRES reporter assay in RD cells; format: cell-based; conditions: 2 μM for 2 h, RD cells co-transfected with 2Apro and pIRES reporter plasmids 24 h
Procedure: FIGS. 6A-6C Ser78 phosphorylation-deficient Hsp27 suppresses the viral IRES activity. (FIG. 6A) RD cells were pretreated with 2 μM SB203580 for 2 h, then co-transfected with a 2A^pro-expressing plasmid (200 ng) and pIRES reporter plasmid (200 ng) for 24 h, then the luciferase activity was measured. (FIG. 6B) HEK 293T cells were co-transfected with Hsp27 (WT, 3A, S15A, S78A, and S82A) plasmid (800 ng), pIRES reporter plasmid (200 ng) and 2A^pro-expressing plasmid (200 ng) for 24 h, then the luciferase activity was measured. (FIG. 6C) HEK 293T cells were co-transfected with Hsp27 (WT, 3A, S15A, S78A, 3D S15D, and S78D) plasmid (800 ng), pIRES reporter plasmid (200 ng) and 2A^C110A-expressing plasmid (200 ng) for 24 h, then the luciferase activity was measured. Statistical analyses were carried out using Student's t-test. *: p<0.05, **: p<0.01, ***: p<0.001. Data are expressed as mean ±SD.
HEK 293T cells were seeded in 24-wells, and then co-transfected with plasmids to simultaneously express 2A^pro (200 ng), pIRES reporter (200 ng), and the wild-type Hsp27 or its mutants (800 ng). […] The Renilla luciferase (RLuc) and Firefly luciferase (FLuc) activity were determined by using a dual-luciferase reporter assay (Promega) according to the manufacturer's instructions in a Lumat LB9507 bioluminometer. […]

Compound	CC50 (in words) [1]	reduction of IRES activity [2]
Ac-RKKRRQRRRYSREANQPKPSPKRESGEE-NH2 [NC, reference compound]	high	
C[S+]([O-])c1ccc(-c2nc(-c3ccncc3)c(-c3ccc(F)cc3)[nH]2)cc1 (centres unmarked) [SB203580, reference compound]		32%
